According to patent publication US20240197596A1, “COMPOUNDS USEFUL AS HAIR DYES” (National University of Singapore, priority 2021, published 2024):
≈ marks a conversion by molar mass, not a printed value. Where “and” joins values, the source holds several entries; their conditions need not be identical. Equal values may be shown once. Entries after “also recorded” stand apart in the source; their conditions may differ.

Key:
[1] = Hair nuance test; set-up: key to L* / a* / b*: CIELAB L*, a*, b* coordinates; key to ΔE (total colour difference to natural hair): ΔE = √((L*−L0)²+(a*−a0)²+(b*−b0)²) vs untreated hair; details: for eventual colour of bleached hair, Type B: Type B (Oxidative, H2O2) formulation; for eventual colour of bleached hair, Type C: Type C (Oxidative with coupler resorcinol) formulation
Protocol: 35 g of bleaching powder was mixed with 50 mL of developer then applied onto undyed black hair (wrapped in aluminium foil to enhance the bleaching process) and left on for 45 min. The hair was then rinsed with deionized water and shampoo and left to dry. This process was repeated twice.
Hair dye formulations were prepared from N1-N13 according to methods reported (New Journal of Chemistry. 2019; 43(41):16188-99), and with the compositions stated in Table 11 Bleached hair samples were immersed into the respective formulations for 20 min, then air dried for 20 min. Then they were shampooed twice and treated with conditioner for 5 min.
SkinColorCatch (Delfin Technologies Ltd, Kuopio, Finland) was used to measure CIELAB tristimulus L*, a* and b* values of the dyed hair samples and baseline L0, a0, b0 values from untreated hair. The difference in colour tone (ΔH) and the total colour difference (ΔE) were then derived from the values obtained with the equations below:
ΔH=√{square root over ((a*−a0)^2+(b*−b0)^2)}
ΔE=√{square root over ((L*−L0)^2+(a*−a0)^2+(b*−b0)^2)}

[2] = Thermodynamic solubility assay (modified shake flask, LC-MS/MS); details: Milli-Q water, pH=7, 25° C., 24 h, 3 separate determinations; for solubility at 24 h: 25 °C, pH 7, water, thermodynamic from solid
Summary of the method: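 Excess compound was shaken in water (pH 7) at 300 rpm and 25° C for 24 h. The supernatant was cleared by two centrifugations at 23,000 g for 20 min. Concentration was quantified by LC-MS/MS (ESI+) against a four-point standard curve.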

[3] = test system: THP-1 cells; assay: MTT assay on THP-1 cells (CV75); type: cell-based, human; details: THP-1 cells, 24 h
Summary of the method: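 THP-1 cells seeded at 1×10^5 cells/well, grown 24 h at 37 °C/5% CO2, then exposed to a dilution series for 24 h (6 replicates). MTT added for 3 h, formazan dissolved in DMSO, absorbance read at 570 nm; CV75 derived from % viability.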

[4] = Skin permeation study, Franz diffusion cell; type: in vitro ADME, porcine; details: for Cumulative amount at 8th hour: 1% w/v in deionized water; for Permeated through skin into receptor / Recovered in donor compartment / Recovered in skin / Recovered in skin outside diffusion area / Recovered in skin swabs / Recovered on parafilm and in washes: mass balance; for recovery at 8 h, 1 % w/v: pig, end of 8 h, read-out: Total recovery (mean percentage parent compound recovery)
Protocol: In each Franz cell, a piece of pig ear skin prepared to a thickness of […] was clamped securely. 5 mL of PBS solution was added to the receiver compartment which was purged of air bubbles to ensure maximal contact of the skin piece with the solution. Donor solution was prepared by dissolving N1-N13 in deionized water at 1% w/v, and 900 μL was added to the donor compartment. The study was conducted for 8 h, and aliquots of 200 μL were removed from the receiver solution and topped up with fresh PBS at each timepoint of 15-minutes intervals for the first hour and every hour after that.
For mass balance, at the end of 8 h, skin pieces and swabs of the top and bottom surface of the skin were collected and stored in ACN for N1-N13 extraction. Donor solution and receiver solution were also collected.
The aliquot samples collected were subjected to 2-step extraction using 750 μL of dichloromethane (DCM). […] The solvent was dried using the TurboVap, and then reconstituted with 198 μL of 0.1% formic acid in 50% methanol in water and spiked with 2 μL of ANP (internal standard). The processed aliquot samples and mass balance samples were then sent for analysis using LC-MS/MS. The compounds' steady state fluxes and permeability coefficients were then calculated by fitting the solution to Fick's […] of diffusion at the steady state (linear part) of each experimental cumulative amount curve.

[5] = Type C (Oxidative with coupler resorcinol)

solubility at 24 h [2] | Cumulative amount at 8th hour ([4]; 8 h) | SMILES | L* ([1]; Type A (Non-oxidative)) | a* ([1]; Type A (Non-oxidative)) | b* ([1]; Type A (Non-oxidative)) | ΔE (total colour difference to natural hair) ([1]; Type A (Non-oxidative)) | ΔH (difference in colour tone) ([1]; Type A (Non-oxidative)) | L* ([1]; Type B (Oxidative)) | a* ([1]; Type B (Oxidative)) | b* ([1]; Type B (Oxidative)) | ΔE (total colour difference to natural hair) ([1]; Type B (Oxidative)) | ΔH (difference in colour tone) ([1]; Type B (Oxidative)) | eventual colour of bleached hair, Type B [1] | L* [1, 5] | a* [1, 5] | b* [1, 5] | ΔE (total colour difference to natural hair) [1, 5] | ΔH (difference in colour tone) [1, 5] | eventual colour of bleached hair, Type C [1] | CV75 (concentration affording 75% cell viability), 1 × CV75 [3] | further results
32 mg/mL (≈ 195 mM) | 0.0145 μg/cm^2 and 0.0144 μg/cm^2 | C=C(C)Oc1cc(N)ccc1N [Compound N12, 2-(prop-1-en-2-yloxy)benzene-1,4-diamine] | 17 | 9 | 4 | 12.4 | 3.52 | 28 | 18 | 12 | 28.39 | 5.32 | brown colour | 11 | 0 | −3 | 4.47 | 2.11 | distinct purple colour | 44.7 µg/mL | Permeated through skin into receptor ([4]; 8 h): <0.001 % of applied compound dose; Recovered in donor compartment ([4]; 8 h): 96.0 % of applied compound dose; Recovered in skin ([4]; 8 h): 0.02 % of applied compound dose; Recovered in skin outside diffusion area ([4]; 8 h): 0.0045 % of applied compound dose; Recovered in skin swabs ([4]; 8 h): 0.05 % of applied compound dose; Recovered on parafilm and in washes ([4]; 8 h): 0.007 % of applied compound dose; recovery at 8 h, 1 % w/v [4]: 96.1 ± 1%
78 to 100 mg/mL (≈ 345 to 442 mM) | 0.0065 μg/cm^2 and 0.00654 μg/cm^2 | COCCOCCOc1cc(N)ccc1N [Compound N5, 2-[2-(2-methoxyethoxy)ethoxy]benzene-1,4-diamine] | 18 | 4 | −1 | 10.0 | 4.5 | 26 | 3.7 | 10.3 | 19.7 | 10.0 | Almond brown | 16 | 0 | −6.7 | 10.4 | 7.7 | vibrant blue colours; also recorded: Indigo | 68.3 µg/mL | eventual colour of bleached hair, Type A ([1]; Type A (Non-oxidative) formulation): dark brown colour shade; also recorded: Dark cinnamon brown; Solubility [2]: 85 + 2.5 mg/ml; Cumulative amount comparison of PPD vs derivatives (times less than PPD) ([4]; 8 h): 825.0; Permeated through skin into receptor ([4]; 8 h): <0.001 % of applied compound dose; Recovered in donor compartment ([4]; 8 h): 95.3 % of applied compound dose; Recovered in skin ([4]; 8 h): 0.04 % of applied compound dose; Recovered in skin outside diffusion area ([4]; 8 h): 0.0045 % of applied compound dose; Recovered in skin swabs ([4]; 8 h): 0.06 % of applied compound dose; Recovered on parafilm and in washes ([4]; 8 h): 0.009 % of applied compound dose; recovery at 8 h, 1 % w/v [4]: 95 ± 1.42%
38 mg/mL (≈ 210 mM) | 0.0106 μg/cm^2 | CNCCOc1cc(N)ccc1N [Compound N13, 2-(2-(methylamino)ethoxy)benzene-1,4-diamine] | 24 | 8 | 8 | 18.38 | 4.28 | 36 | 11 | 18 | 33.74 | 5.8 | Grey | 25 | 14 | 11 | 23.49 | 4.84 | Brown | 54.3 µg/mL | Permeated through skin into receptor ([4]; 8 h): <0.001 % of applied compound dose; Recovered in donor compartment ([4]; 8 h): 93.0 % of applied compound dose; Recovered in skin ([4]; 8 h): 0.03 % of applied compound dose; Recovered in skin outside diffusion area ([4]; 8 h): 0.003 % of applied compound dose; Recovered in skin swabs ([4]; 8 h): 0.02 % of applied compound dose; Recovered on parafilm and in washes ([4]; 8 h): 0.003 % of applied compound dose; recovery at 8 h, 1 % w/v [4]: 93.1 ± 1.2%
78 to 100 mg/mL (≈ 367 to 471 mM) | 0.0073 μg/cm^2 | COC(COc1cc(N)ccc1N)OC [Compound N1, 2-(2,2-dimethoxyethoxy)benzene-1,4-diamine] | 23 | 12 | 8 | 19.7 | 13.9 | 9 | −0 | −1 | 2.0 | 2.0 | black colour | 21 | 18 | 8 | 22.7 | 19.3 | Dark brown | 143.4 µg/mL | Solubility [2]: 85 + 4.0 mg/ml; Permeated through skin into receptor ([4]; 8 h): <0.001 % of applied compound dose; Recovered in donor compartment ([4]; 8 h): 96.7 % of applied compound dose; Recovered in skin ([4]; 8 h): 0.05 % of applied compound dose; Recovered in skin outside diffusion area ([4]; 8 h): 0.0015 % of applied compound dose; Recovered in skin swabs ([4]; 8 h): 0.04 % of applied compound dose; Recovered on parafilm and in washes ([4]; 8 h): 0.003 % of applied compound dose; recovery at 8 h, 1 % w/v [4]: 96 ± 1.26%
